{"source": "paper PMC5004178", "about": "“A novel inhibitory effect of oxazol-5-one compounds on ROCKII signaling in human coronary artery vascular smooth muscle cells” (Scientific Reports, 2016)", "molecular_target": "T1, ROCKII (Homo sapiens, UniProt O75116)", "T1 construct": "gene ROCK2; ROCKII(5–554), constitutively active recombinant", "T1 sequence (O75116 5-554)": "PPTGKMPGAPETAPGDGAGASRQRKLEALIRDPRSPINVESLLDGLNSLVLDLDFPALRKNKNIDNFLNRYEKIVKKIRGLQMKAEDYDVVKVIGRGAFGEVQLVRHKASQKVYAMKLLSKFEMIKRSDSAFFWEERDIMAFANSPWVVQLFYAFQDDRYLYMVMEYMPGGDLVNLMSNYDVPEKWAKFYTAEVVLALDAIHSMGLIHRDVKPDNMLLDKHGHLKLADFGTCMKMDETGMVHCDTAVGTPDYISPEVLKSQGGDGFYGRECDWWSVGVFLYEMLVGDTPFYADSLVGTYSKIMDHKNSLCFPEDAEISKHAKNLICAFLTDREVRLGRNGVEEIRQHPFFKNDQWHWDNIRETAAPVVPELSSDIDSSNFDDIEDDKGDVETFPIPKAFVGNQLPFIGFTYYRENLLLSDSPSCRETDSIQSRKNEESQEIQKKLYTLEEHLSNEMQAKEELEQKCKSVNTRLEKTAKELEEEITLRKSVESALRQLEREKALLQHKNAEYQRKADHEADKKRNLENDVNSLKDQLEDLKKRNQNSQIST", "assay": "[…]-phosphoryl transfer kinase assay with LC20 peptide; steady-state kinetics", "assay_type": "biochemical", "data": [{"molecule": "O=C1OC(c2ccc(Cl)c([N+](=O)[O-])c2)=N/C1=C\\c1cccnc1", "note": "[DI, (4Z)-2-(4-chloro-3-nitrophenyl)-4-(pyridin-3-ylmethylidene)-1,3-oxazol-5-one]", "values": [{"measurement": "Ki", "value": 132, "unit": "nM"}]}]}
